Data: patent US20220143103A1, “COMPOSITION FOR PREVENTING OR TREATING NEUROINFLAMMATORY DISORDERS, COMPRISING BEE VENOM EXTRACT AS ACTIVE INGREDIENT” (priority 2019, published 2022)

Experiments:
Assay type in all cases: cell-based
[1] = tested on: NF-κB (p65, p50, p-IκBα) in BV-2 cells; experiment: Western blot of NF-κB subunits and p-IκBα in LPS-treated BV-2 cells; settings: BV-2, LPS 1 μg/mL, bvPLA2 100 ng/mL, NF-κB inhibitor; FIG. 7B
Protocol: (§1) Blots were incubated with corresponding conjugated secondary antibodies such as anti-mouse, anti-rabbit and anti-goat obtained from Santa Cruz Biotechnology Inc. (Santa Cruz, Calif., USA). Immunoreactive proteins were detected with an enhanced chemiluminescence Western blotting detection system.
(§2) Microglia BV-2 was cultured and treated simultaneously with LPS (1 μg/mL) or Aβ1-42 (2.5 μM) and various concentrations of bvPLA2 (0.01, 0.1, 1 μg/mL) dissolved in PBS. Cells were harvested after 24 hours to measure cell viability, Nitric Oxide concentration, and a level of pro-inflammatory cytokines.
To determine whether or not bvPLA2 affects inhibition of NF-κB translocation, the level of the NF-κB subunit in the nucleus of BV-2 cells was measured by Western blot.

[2] = tested on: TNF-α, IL-1β, IL-6, IL-4, TGF-β in BV-2 cells; experiment: qRT-PCR of cytokines in LPS-treated BV-2 cells; settings: BV-2, LPS 1 μg/mL
Protocol: Pro-inflammatory and anti-inflammatory cytokine levels were measured by quantitative reverse transcription polymerase chain reaction (qRT-PCR). Total RNA was extracted from hippocampal tissue using RiboEX (Geneall biotechnology, Seoul, Korea), and cDNA was synthesized using a High-Capacity cDNA Reverse Transcription kit (Thermo Scientific, Waltham, Mass., USA).
qRT-PCR was performed on a 7500 real-time PCR system (Applied Biosystems, Foster City, Calif., USA) for custom designed primers, and β-actin was used as a house-keeping control using a HiPi Real-Time PCR SYBR green master mix (ELPIS biotech, Daejeon, Korea).
A cycling condition consisting of an initial denaturation step of 3 minutes at 94° C., a denaturation step of 30 seconds at 94° C., an annealing step of 30 seconds at 60° C., and an extension step of 1 minute at 72° C., was continued until 40 cycles. Values obtained for target gene expression were normalized to β-actin and quantified for expression in control samples.
Each sample was performed with the primers in Table 2 below.
as §2

[3] = tested on: iNOS, COX-2, IBA-1 in BV-2 cells; experiment: Western blot of iNOS, COX-2, IBA-1 in LPS-treated BV-2 cells; settings: BV-2, LPS 1 μg/mL
Protocol: To detect target proteins, specific antibodies to iNOS, IBA-1, GFAP, APP and BACE1 (1:1000; Abcam, Inc., Cambridge, UK), COX-2 (1:1000; Novus Biologicals, Inc., CO, USA), c-Jun N-terminal kinase (JNK), extracellular signal-regulated kinase (ERK) 1/2, p-p38 and p38 ([…]; Cell signaling Technology, Inc., MA, USA), p-STAT3, STAT3, p-ERK1/2, p-JNK, and β-actin (1:200; Santa Cruz Biotechnology Inc., Santa Cruz, Calif., USA) were used.
as §1, §2

β-secretase = β-secretase activity assay in LPS-treated BV-2 cells; settings: BV-2, LPS 1 μg/mL, Stattic 1 μM, bvPLA2 1 μg/mL, 24 h; FIG. 21B
Protocol: β-secretase activity in the mouse brain was determined using a commercially available β-secretase activity assay kit (Abcam, Inc., Cambridge, Mass., USA). A solubilized membrane was extracted from brain tissues using a β-secretase extraction buffer, incubated on ice for 1 hour, and centrifuged at 5000×g for 10 minutes at 4° C. to collect supernatant.
A total of 50 μL of sample (100 μg of total protein) or blank (50 μL of β-secretase extraction buffer) was added to each well (96-well plate), then 50 μL of 2× reaction buffer and 2 μL of β-secretase substrate were incubated for 1 hour in a dark room at 37° C. Fluorescence was read at excitation and emission wavelengths of 335 and 495 nm, respectively, using a fluorescence spectrometer (Gemini EM; Molecular Devices, CA, USA).
as §2

Aβ1-42 in BV-2 cells = experiment: Aβ1-42 ELISA in LPS-treated BV-2 cells; settings: BV-2, LPS 1 μg/mL, Stattic 1 μM, 24 h
Protocol: Lysates of brain tissue were obtained through a protein extraction buffer containing protease inhibitors. Aβ1-42 and Aβ1-40 levels were measured using the specific mouse β-amyloid peptide 1-42 enzyme-linked immunosorbent assay (ELISA) kit (CSB-E10787m; CUSABIO, Houston, USA) and mouse β-amyloid peptide 1-40 ELISA kit (CSB-E08300m; CUSABIO, Houston, USA), respectively.
To investigate the effect of bvPLA2 on amyloidogenesis in vitro, BV-2 cells were treated with LPS and various concentrations of bvPLA2 (0.01, 0.1, 1 μg/mL) for 24 hours. Aβ1-42 levels in BV-2 cells were determined by ELISA.
The inhibitory effects of a STAT3 inhibitor (Stattic) and the bee venom extracts on amyloid production and neuroinflammation were tested in BV-2 cells. To determine the combination effect of bvPLA2 and Stattic on amyloidogenesis and neuroinflammation in vitro, BV-2 microglia were treated with LPS (1 μg/m L), Stattic (1 μM), or bvPLA2 (1 μg/mL) for 24 h.

With `Cc1ccc(S(=O)(=O)/C=C/C#N)cc1` [Bay 11-7802] the “levels of p-IκBα, p65, and p50” value [1] was “alleviated”, the “expression levels of TNF-α, IL-1β, and IL-6 (qRT-PCR)” value ([2]; bvPLA2 100 ng/mL, NF-κB inhibitor, FIG. 7C) was “decreased” and the “levels of iNOS and COX-2 (Western blot)” value ([3]; bvPLA2 100 ng/mL, NF-κB inhibitor, FIG. 7A) was “decreased”.

`O=[N+]([O-])c1ccc2c(c1)S(=O)(=O)C=C2` [Stattic] was tested, and the β-secretase activity (β-secretase) was “decreased”, the “expression levels of TNF-α, IL-1β, and IL-6 (qRT-PCR)” value ([2]; Stattic 1 μM, bvPLA2 1 μg/mL, 24 h, FIG. 21E) was “decreased” and the “intracellular levels of iNOS and COX-2 (Western blot)” value ([3]; Stattic 1 μM, bvPLA2 1 μg/mL, 24 h, FIG. 21D) was “decreased”. The “Aβ1-42 level (ELISA)” value (Aβ1-42 in BV-2 cells) was 264.2 ± 4.384 pg/mg.
